# Measurements reported in US10894772B2, “Flavor modulator having pyridine derivative or salt thereof as active ingredient” (T. HASEGAWA CO., LTD., priority 2015, dated 2021).
# Experiments:
# Assay type in all cases: in vivo
# [1] = tested on: panelists; assay: Flavor evaluation of ethanol solution (bottle mouth and flavor paper); conditions: 1% ethanol solution, typical evaluation, 5 panelists
# Method: (§1) A 1% ethanol solution of the invention products 1 to 6 prepared in Examples 1 to 6 was prepared as an evaluation solution. The evaluation solution was prepared in a sample bottle. Regarding the flavor of the sample smelling from the bottle mouth and the flavor of a flavor paper prepared by infiltrating the evaluation solution into a paper, well-trained 5 panelists tested the solution for flavor evaluation.
# as §1, with “0.1%” for “1%”, “product 101 (2-(3-benzyloxypropyl)pyridine)” for “products 1 to 6”, “Example 101” for “Examples 1 to 6”, “evaluation. A typical evaluation of the product is as follows.” for “evaluation.”
# [2] = tested on: panelists; assay: Confirmation of umami in water (point score); conditions: average point of 10 panelists, 0 no difference from control (water), 1 somewhat stronger, 2 stronger, 3 considerably stronger, 4 poor taste balance
# Method: As a comparative product, a solution was prepared by dissolving the comparative product 1 (2-(2-benzyloxyethyl)pyridine) to have the same concentration. Water with no addition was prepared as a control product. Well-trained 10 panelists tasted the solutions prepared by dissolving any the invention products 1 to 6 and the comparative product 1 for organoleptic evaluation of umami.
# Umami evaluation was based on the control product of water.
# [3] = tested on: panelists; assay: Confirmation of umami imparting and saltiness enhancing effect in 0.3 mass % sodium chloride (point score); conditions: average point of 10 panelists vs control, 0 no change, 1 slightly higher, 2 higher, 3 considerably higher, 4 extremely higher umami and saltiness, 5 bitter as lacking balance
# Method: An aqueous 0.3 mass % sodium chloride solution (control), and solutions of the invention products 1 to 6 each dissolved in a 0.3 mass % sodium chloride solution to have the concentration shown in Table 5 were prepared. As a comparative product, a solution was prepared by dissolving the comparative product 1 in 0.3 mass % sodium chloride. Well-trained 10 panelists tasted the solutions for organoleptic evaluation of umami impartment and saltiness enhancement.
# Umami and saltiness scores are as follows, based on the aqueous 0.3 mass % sodium chloride solution as a control. Each sample was given any of a point 0, no change from control; 1, slightly higher umami and saltiness than control; 2, higher umami and saltiness than control; 3, considerably higher umami and saltiness than control; 4, extremely higher umami and saltiness than control; and 5, bitter as lacking balance of umami and saltiness.
# [4] = 0.05 ppb in aqueous 0.3 mass % sodium chloride solution
# [5] = 0.1 ppb in aqueous 0.3 mass % sodium chloride solution
# [6] = 0.1 ppm in aqueous 0.3 mass % sodium chloride solution
# [7] = 0.5 ppm in aqueous 0.3 mass % sodium chloride solution
# [8] = 1 ppb in aqueous 0.3 mass % sodium chloride solution
# [9] = 2 ppm in aqueous 0.3 mass % sodium chloride solution
# [10] = 10 ppb in aqueous 0.3 mass % sodium chloride solution
# [11] = 10 ppm in aqueous 0.3 mass % sodium chloride solution
# [12] = 50 ppm in aqueous 0.3 mass % sodium chloride solution
structure (smiles),measurement,setting,value
"c1ccc(COCCCCc2ccccn2)cc1 [invention product 1, 2-(4-benzyloxybutyl)pyridine]",Flavor Evaluation,[1],Earthy
same,umami (average point),[2]; 0.1 ppm in water,1.6
same,umami (average point),[2]; 1 ppm in water,2.3
same,umami (average point),[2]; 2 ppb in water,0.0
same,umami (average point),[2]; 10 ppb in water,0.8
same,umami (average point),[2]; 20 ppm in water,2.9
same,umami (average point),[2]; 200 ppm in water,3.4
same,umami (average point),[2]; 500 ppm in water,3.8
same,umami (average point),[2]; 2000 ppm in water,4.0
same,umami and saltiness (average point),[3]; [4],0.0
same,umami and saltiness (average point),[3]; [5],0.8
same,umami and saltiness (average point),[3]; [6],3.2
same,umami and saltiness (average point),[3]; [7],3.7
same,umami and saltiness (average point),[3]; [8],1.4
same,umami and saltiness (average point),[3]; [9],4.3
same,umami and saltiness (average point),[3]; [10],2.3
same,umami and saltiness (average point),[3]; [11],4.7
same,umami and saltiness (average point),[3]; [12],4.9
"c1ccc(CCOCCc2ccccn2)cc1 [invention product 2, 2-(2-phenylethoxyethyl)pyridine]",Flavor Evaluation,[1],"Earthy, hyacinthine"
same,umami (average point),[2]; 0.1 ppm in water,1.5
same,umami (average point),[2]; 1 ppm in water,2.0
same,umami (average point),[2]; 2 ppb in water,0.0
same,umami (average point),[2]; 10 ppb in water,0.7
same,umami (average point),[2]; 20 ppm in water,2.8
same,umami (average point),[2]; 200 ppm in water,3.2
same,umami (average point),[2]; 500 ppm in water,3.8
same,umami (average point),[2]; 2000 ppm in water,4.0
same,umami and saltiness (average point),[3]; [4],0.0
same,umami and saltiness (average point),[3]; [5],0.7
same,umami and saltiness (average point),[3]; [6],3.0
same,umami and saltiness (average point),[3]; [7],3.9
same,umami and saltiness (average point),[3]; [8],1.5
same,umami and saltiness (average point),[3]; [9],4.4
same,umami and saltiness (average point),[3]; [10],2.4
same,umami and saltiness (average point),[3]; [11],4.6
same,umami and saltiness (average point),[3]; [12],5.0
"COc1ccc(COCCCc2ccccn2)cc1 [invention product 3, 2-[3-(p-methoxybenzyloxy)propyl]pyridine]",Flavor Evaluation,[1],Bitter almond
same,umami (average point),[2]; 0.1 ppm in water,1.4
same,umami (average point),[2]; 1 ppm in water,2.1
same,umami (average point),[2]; 2 ppb in water,0.0
same,umami (average point),[2]; 10 ppb in water,0.8
same,umami (average point),[2]; 20 ppm in water,2.8
same,umami (average point),[2]; 200 ppm in water,3.0
same,umami (average point),[2]; 500 ppm in water,3.6
same,umami (average point),[2]; 2000 ppm in water,3.9
same,umami and saltiness (average point),[3]; [4],0.0
same,umami and saltiness (average point),[3]; [5],0.8
same,umami and saltiness (average point),[3]; [6],3.3
same,umami and saltiness (average point),[3]; [7],3.5
same,umami and saltiness (average point),[3]; [8],1.6
same,umami and saltiness (average point),[3]; [9],4.2
same,umami and saltiness (average point),[3]; [10],2.6
same,umami and saltiness (average point),[3]; [11],4.8
same,umami and saltiness (average point),[3]; [12],4.9
"c1ccc(CCSCCc2ccccn2)cc1 [invention product 4, 2-(2-phenylethylthioethyl)pyridine]",Flavor Evaluation,[1],Metallic spicy savor
same,umami (average point),[2]; 0.1 ppm in water,1.6
same,umami (average point),[2]; 1 ppm in water,2.2
same,umami (average point),[2]; 2 ppb in water,0.0
same,umami (average point),[2]; 10 ppb in water,0.7
same,umami (average point),[2]; 20 ppm in water,3.0
same,umami (average point),[2]; 200 ppm in water,3.6
same,umami (average point),[2]; 500 ppm in water,3.9
same,umami (average point),[2]; 2000 ppm in water,4.0
same,umami and saltiness (average point),[3]; [4],0.0
same,umami and saltiness (average point),[3]; [5],0.6
same,umami and saltiness (average point),[3]; [6],3.4
same,umami and saltiness (average point),[3]; [7],3.8
same,umami and saltiness (average point),[3]; [8],1.8
same,umami and saltiness (average point),[3]; [9],4.5
same,umami and saltiness (average point),[3]; [10],2.3
same,umami and saltiness (average point),[3]; [11],4.8
same,umami and saltiness (average point),[3]; [12],5.0
"Cc1ccc(COCCCc2ccccn2)cc1 [invention product 5, 2-[3-(p-methylbenzyloxy)propyl]pyridine]",Flavor Evaluation,[1],Nutty
same,umami (average point),[2]; 0.1 ppm in water,1.4
same,umami (average point),[2]; 1 ppm in water,2.0
same,umami (average point),[2]; 2 ppb in water,0.0
same,umami (average point),[2]; 10 ppb in water,0.6
same,umami (average point),[2]; 20 ppm in water,2.7
same,umami (average point),[2]; 200 ppm in water,3.1
same,umami (average point),[2]; 500 ppm in water,3.6
same,umami (average point),[2]; 2000 ppm in water,3.9
same,umami and saltiness (average point),[3]; [4],0.0
same,umami and saltiness (average point),[3]; [5],0.8
same,umami and saltiness (average point),[3]; [6],3.0
same,umami and saltiness (average point),[3]; [7],3.6
same,umami and saltiness (average point),[3]; [8],1.5
same,umami and saltiness (average point),[3]; [9],4.2
same,umami and saltiness (average point),[3]; [10],2.2
same,umami and saltiness (average point),[3]; [11],4.6
same,umami and saltiness (average point),[3]; [12],4.8
